This is an account of results in US5750552A, “Imidazoline derivative, possible tautomer thereof, and vulnerary including such derivative or tautomer” (Arax Co., Ltd., priority 1995, dated 1998).

The subject of data set [1] is hydrochloric acid-ethanol-induced gastric ulcer. Nature of the data set: Inhibitory effect on hydrochloric acid-ethanol-induced gastric ulcer. The data set is classed as in vivo, SD rats. To be noted: 30 mg/kg oral, 30 min before hydrochloric acid-ethanol. As for the experimental part: Inhibitory effect on hydrochloric acid-ethanol-induced gastric ulcer
Male SD rats of 7-week age were fasted for 24 hours, with a fast of water beginning in early morning of the day when the experiments were performed. The rats were classified into groups each consisting of five rats, such that all the groups have substantially the same average weight. Before giving hydrochloric acid-ethanol to the rats, the compounds of the Examples indicated in TABLE 4 were orally administered as specimen drugs to the rats, with a dose of 30 mg/kg. Thirty minutes later, 1 mL of 98% ethanol containing 200 mM of hydrochloric acid was orally administered to each specimen rat. One hour later, the specimen rats were sacrificed by ether, and the gastric mucosa of each rat was semi-fixed with 2% formalin. The longitudinal length of the damaged area of the gastric mucosa was measured, and the anti-ulcer percent values of the individual specimen drugs were calculated on the basis of the sum of the measured length values of each group of the specimen rats, in the same manner as in Example 19.

For data set [2], the system named is water-immersion restraint stress-induced gastric ulcer. Nature of the data set: Inhibitory effect on water-immersion restraint stress-induced gastric ulcer. The data set is classed as in vivo, SD rats. To be noted: 10 mg/kg oral, 30 min before stress. As for the experimental part:
Inhibitory effect on water-immersion restraint stress-induced gastric ulcer
Male 7-week SD rats were fasted for 24 hours, with a fast of water beginning in early morning of the day when the experiments were performed. The rats were classified into groups each consisting of five rats, such that all the groups have substantially the same average weight. Thirty minutes before giving a stress to the rats, the compounds of the Examples indicated in TABLE 3 were orally administered as specimen drugs to the rats, with a dose of 10 mg/kg. The rats were then kept in stress cages, and were given a stress by immersing the cages in a water bath kept at a substantially constant temperature of 23°±1° C., such that the water level was at the height of the xiphoid of the rats. Seven hours later, the specimen rats were sacrificed by ether, and the gastric mucosa of each rat was semi-fixed with 2% formaline. The longitudinal length of the damaged area of the gastric mucosa was measured. A sum of the measured length values of the rats of each group was calculated as an ulcer index. An anti-ulcer or ulcer inhibitory percent (%) was calculated as {1-(ulcer index of each group of specimen rats)/(ulcer index of non-specimen group)}×100.

Data set [3] concerns indomethacin-induced gastric ulcer. Put plainly: Inhibitory effect on indomethacin-induced gastric ulcer. The data set is classed as in vivo, SD rats. To be noted: 30 mg/kg oral, 30 min before indomethacin. As for the experimental part:
Inhibitory effect on indomethacin-induced gastric ulcer
Male SD rats of 7-week age were fasted for 24 hours, with a fast of water beginning in early morning of the day when the experiments were performed. The rats were classified into groups each consisting of eight rats, such that all the groups have substantially the same average weight. Before giving indomethacine to the rats, the compounds of the Examples indicated in TABLE 5 were orally administered as specimen drugs to the rats, with a dose of 30 mg/kg. Thirty minutes later, indomethacin was orally administered to each specimen rat, with a dose of 25 mg/kg (1 mL/rat). Seven hours later, the specimen rats were sacrificed by ether, and the gastric mucosa of each rat was semi-fixed with 2% formalin. The longitudinal length of the damaged area of gastric mucosa was measured, and the anti-ulcer percent values of the individual specimen drugs were calculated on the basis of the sum of the measured length values of each group of specimen rats, in the same manner as in EXAMPLE 19.

Data set [4] has as its system gastric acid secretion in a pylorus ligated rat. Put plainly: Inhibitory effect on the gastric acid secretion in a pylorus ligated rat. The data set is classed as in vivo, SD rats. To be noted: 10 mg/kg intraduodenal; 4 hours. As for the experimental part: Inhibitory effect on the gastric acid secretion in a pylorus ligated rat Male 7-week SD rats were fasted for 24 hours, with a fast of water beginning in early morning of the day when the experiments were performed. The rats were classified into groups each consisting of five rats, such that all the groups have substantially the same average weight. The experiments were performed according to a method of Shay et. al. (Shay, H. et. al., Gastroenterology, Vol. 5, pp43, 1945). Described more specifically, each of the rats was subjected to a light anesthesia by ether, and the hair of the abdomen of each rat was clipped. Then, the abdomen was incised over a length of 1.5 cm along the center line downwards from a portion 1 cm below the xiphoid of the rat, and the stomach was taken out of the body. A portion connecting the pylorus and the duodenum was ligated by suturing thread. […] After the administration, the skin of the abdominal muscle and abdomen was sutured. The rats were kept in cages and fasted for 4 hours with a fast of water. Then, the rats were sacrificed by ether, and the stomach of each rat was removed. The gastric content was obtained from a small hole formed through the stomach of each rat and was collected in a test tube. […] An amount of supernatant was measured as a volume of gastric acid, and a total acidity of the gastric acid was also measured. A volume of gastric acid inhibitory percent (%) and a total acidity inhibitory percent (%) were calculated in the same manner as the ulcer inhibitory percent was calculated. The total acidity was obtained as a product of the amount of gastric acid secreted for 4 hours and the acidity per 1 mL of the gastric acid which was subjected to neutralization titration by an aqueous solution of 0.01N sodium hydroxide.

Data set [5] has as its system acetic acid-induced gastric ulcer. Nature of the data set: Healing effect on acetic acid-induced gastric ulcer of rat. The data set is classed as in vivo, Donryu rat. To be noted: 25 mg/kg oral two times a day, 10 days. As for the experimental part:
Healing effect on acetic acid-induced gastric ulcer of rat
A male Donryu rat of 7-week age was subjected to abdominal incision to expose the stomach, with pentobarbital used as an anesthesia. Using a metal ring having an inside diameter of 10 mm, 200 μL of glacial acetic acid was applied, for 60 seconds, with a serosa-side of a boundary area between the antrum and the corps. The abdomen of the specimen rat subjected to the glacial acetic acid was closed by an operation, and the rat was then fed in a normal way. The compound prepared in Example 2, that is, 2-(2-dimethylaminobenzylsulfinyl)-5,5-dimethylimidazoline-4-thione was used as the specimen drug. This compound was orally administered to the specimen rat two times a day (at 9:00 a.m. and 5:00 p.m.), each time with a dose of 25 mg/kg, beginning on the day following the day on which the glacial acetic acid was applied to the rat. The oral administration continued for 10 consecutive days, with a total of 20 administrations. On the day following the last day of the administration, the specimen rat was sacrificed by ether, and the ulcer portion of the rat was semi-fixed with formalin. The surface area of the ulcer portion was measured. The healing percent (%) calculated on the basis of the measured surface area was 40.8%.

Data set [6] has as its system ddY mice. Put plainly: Single-dose toxicity study. The data set is classed as in vivo. To be noted: oral, male ddY mice, two weeks.
Data set [7] is described as follows: Single-dose toxicity study. The data set is classed as in vivo. To be noted: mouse, in vivo, oral, male ddY mice, two weeks.
Data set [8] relates to wound in rat. Nature of the data set: Healing effect on wound in rat. The data set is classed as in vivo, SD rats. To be noted: TABLE 7, 15 days; for Healing days: control 15.1 ± 0.22; for Healing Index: control 188.3 ± 18.2. As for the experimental part:
Healing Effect on wound in rat
Male 7-week SD rats were classified into groups each consisting of 6-7 rats, such that all the groups have substantially the same average weight. The experiment was performed on the rats according to a method of Tsurumi et al. (Oyo Yakuri, Vol. 7, pp833, 1973). Initially, the rats were subjected to an anesthesia with pentobarbital. The hair of the back of each rat was clipped, and the skin was disinfected with 70% ethanol. Then, the skin was lightly pulled and punched off in a direction from the right to the left by means of a punch whose diameter is 10 mm, so as to form two open wounds on portions of the back of the rat which are symmetrical to each other with respect to the center line of the back. The compounds of Examples indicated in the following TABLES 7 and 8 were used as specimen drugs, and orally administered once a day to each of the rats with doses indicated in the TABLES 7 and 8. The oral administration continued for 15 consecutive days, beginning from the first day when the wounds were formed on the back of each rat.
To clarify the healing effect on the wounds, an Healing Index and healing days were obtained in the following manner. Initially, the lengths of a major axis and a minor axis of each wound formed on the back were measured using calipers. On the basis of the measured length values, the area of each wound was calculated as the area of an ellipse. The Healing Index was obtained according to a method of Nakano et al. (Oyo Yakuri, Vol. 47, pp29, 1994). Described more specifically, a ratio of area of each wound was chronologically represented in a graph, and an area of the lower part of a curve in the graph during a period from the fifth day to the fifteenth day after the wounds were formed was obtained as the Healing Index. […] The healing days were obtained as the number of the days that were required for the wounds to be completely covered with regenerated epidermises. As for the wound that was healed in more than 15 days, the healing days were obtained as 16 days.

In the case of `CC1(C)N=C([S+]([O-])Cc2cccc3cccnc23)NC1=S` (stereo not drawn) [Example 4, 2-(8-quinolinylmethylsulfinyl)-5,5-dimethylimidazolin-4-thione], in data set [1], the “Inhibitory Percent (ulcer)” value is 90.3%.
As to `CCN(C)c1ccccc1C[S+]([O-])C1=NC(C)(C)C(=S)N1` (stereo not drawn) [Example 15, 2-(2-N-ethyl-N-methylaminobenzylsulfinyl)-5,5-dimethylimidazolin-4-thione], the “Inhibitory Percent (ulcer)” value in data set [2] amounted to 99.9%; in data set [3], 99.2%; in data set [1], 97.4%. Further, in data set [4], the “Total acidity Inhibitory percent” value came out at 91.3%. Further, the “Volume of Gastric acid Inhibitory percent” value in data set [4] is reported as 60.1%.
The LD50 is the dose at which mortality reaches 50%. For `CN(C)c1ccccc1C[S+]([O-])C1=NC(C)(C)C(=S)N1` (stereo not drawn) [Example 2, 2-(2-dimethylaminobenzylsulfinyl)-5,5-dimethylimidazolin-4-thione], the “healing percent (ulcer surface area)” value in data set [5] turned out to be 40.8%. Besides, the “Inhibitory Percent (ulcer)” value in data set [3] worked out at 100%. In addition, the “LD50 95% confidence limits” value in data set [6] lay within 791 to 1138 mg/kg. In addition, the LD50 at 336 h in data set [7] amounted to 952 mg/kg. For the same compound, the figures for the Healing days in data set [8] (50 mg/kg oral once a day) and in data set [8] (100 mg/kg oral once a day) were 13.8 ± 0.39 days and 14.6 ± 0.44 days, respectively. In addition, the figures for the “Healing Index” value in data set [8] (50 mg/kg oral once a day) and in data set [8] (100 mg/kg oral once a day) were 153.0 ± 13.2 and 146.7 ± 12.4, respectively.
As for `CCC1(C)N=C([S+]([O-])Cc2ccccc2N(C)C)NC1=S` (stereo not drawn) [Example 16, 2-(2-dimethylaminobenzylsulfinyl)-5-ethyl-5-methylimidazolin-4-thione], the “Inhibitory Percent (ulcer)” value in data set [3] is 97.2%; in data set [1], 98.6%. Further, the “Total acidity Inhibitory percent” value in data set [4] is given as 77.4%. Besides, the “Volume of Gastric acid Inhibitory percent” value in data set [4] was found to be 41.6%.
